Assay results from patent US20100130598A1, “METHODS FOR INDUCING PROGRAMMED CELL DEATH” (Novogen Research Pty Ltd., priority 2008, published 2010).

Experiments:
Assay type in all cases: cell-based, human
[1] = tested on: Caspase 2, 3 and 9 in MIAPaCa-2 cells; test: In situ caspase activity by flow cytometry, MIAPaCa-2; conditions: MIAPaCa-2, 10 μM, after 48 hrs
Experimental: (§1) Cells. Human pancreatic cell lines HPAC, MIAPaCa-2 and PANC-1 were obtained from the ATCC. (Manassas, Va.). The cells were maintained in DMEM media with Gln and high glucose (Mediatech, Manassas, Va.) with 10% fetal bovine serum (FBS, HyClone, Logan, Utah) and pencillin/streptomycin.
Caspase Activity After 48 h treatment with 10 μM Compound 10, HPAC, MIAPaCa-2 and PANC-1 cells were harvested by trypsinization and resuspended in DMEM media with 10% FBS. The cells were incubated with caspase substrates for 1 h at 37° C., 5% CO2, then probed with Annexin-V-Cy5 and sytox blue. Caspase +ve cells were gated as shown in the histograms and these cells are indicated on the Annexin-V-Cy5/sytox blue spectra as blue cells. In situ caspase activity was assayed using fluorescent substrates. For Caspase 2, FITC-VDVAD-fmk (Biovision K182-100), for Caspase 3, FITC-DEVD-fmk (K183-100) and for Caspase 9, FITC-LEHD-fmk (K199-100) was used. These substrates bind irreversibly to their respective activated caspases, and caspase activation was quantitated by flow cytometry. […] Caspase activation, apoptosis and necrosis were measured simultaneously using a violet, blue and red laser in a BD LSRII flow cytometer.

[2] = tested on: HPAC cells; test: Cell cycle analysis by FACS (PI), HPAC; conditions: 10 μM, accompanied with an arrest in G0/G1, transient
Experimental: as §1
FACS Analysis. Apoptosis was measured by FACS analysis using Annexin-V-FITC and propidium iodide (PI) (Biovision, Mountain View, Calif.) as probes (Ahn et al., 2003). Mitochondrial membrane potential was measured by FACS analysis using JC-1 (Biovision) as a probe (Ahn et al., 2003). Cell cycle was analyzed on ethanol-fixed, RNaseA-treated cells staining with PI. In each spectrum, 10,000 gated events were recorded and analyzed with a FACSCalibur (BD Biosciences. San Jose, Calif.). All experiments were done in triplicate, error bars represent one standard deviation. Caspase inhibitor I (zVAD-fmk) was obtained from Calbiochem.

[3] = tested on: caspases-3/7, -8, and -9; test: Caspase-3/7, -8, and -9 activity assay (Caspase-Glo) on cell lysates; conditions: EOC cells, 24 h; increasing concentrations of Compound 1 or 2 μM Paclitaxel
Source text: Protein preparation and cellular fractionation. After drug treatment, protein was extracted and measured as previously described (Alvero et al, 2006). For separation of the cytoplasmic and mitochondrial fractions, cell pellets were processed using the ApoAlert™ Cell Fractionation Kit (BD Biosciences, San Jose, Calif.) according to the manufacturer's instructions. For separation of the cytoplasmic and nuclear fractions, pellets were processed using NE-PER Nuclear and Cytoplasmic Extraction (Pierce Biotechnology, Inc., Rockford, Ill.). Caspase-3/7, -8, and -9 activity assay. Ten μg of protein in a 50 μl total volume was mixed with 50 μl of equilibrated Caspase-Glo^10 3/7, 8, or 9 reagents (Promega). After incubating at room temperature for 1 h, luminescence was measured using TD 20/20 Luminometer (Turner Designs, Sunnyvale, Calif.). Blank values were subtracted and fold-increase in activity was determined in relation to the control non-treatment.

[4] = tested on: EOC cells; test: Mitochondrial depolarization using JC-1 (flow cytometry); conditions: 10 pg/ml (as printed, FIG. 5 legend)
Source text: Assay of mitochondrial depolarization using JC-1. After treatment, cells were trypsinized and stained with JC-1 dye using the Mitocapture™ mitochondrial apoptosis detection kit (BioVision Research Products, Mountain View, Calif.) according to manufacturer's instruction. Data was acquired using BD LSR II System and analyzed using BD FACSDiva Software™.

Row | SMILES | caspase 2, 3 and 9 activation [1] | G2/M arrest [2] | caspase-3/7, -8, and -9 activities [3] | cells having depolarized mitochondria ([4]; 1 h) | cells having depolarized mitochondria ([4]; 4 h)
1 | COc1ccc(C2c3ccc(O)cc3OCC2c2ccc(O)cc2)cc1 (centres unmarked) [Compound 10, 3-(4-hydroxyphenyl)-4-(4-methoxyphenyl)chroman-7-ol] | activated | less pronounced |  |  | 
2 | COc1ccc(C2c3ccc(O)c(C)c3OCC2c2ccc(O)cc2)cc1 (centres unmarked) [Compound 1, 3-(4-hydroxyphenyl)-4-(4-methoxyphenyl)-8-methylchroman-7-ol] |  |  | no changes | 30% | 50%
